This note sets out measurements from PMC7672604, “Design, Synthesis, Molecular Docking, Antiapoptotic and Caspase-3 Inhibition of New 1,2,3-Triazole/Bis-2(1H)-Quinolinone Hybrids” (Molecules, 2020).

Data set [1] has as its system testis of I/R rats. Put plainly: TNFα in testis of I/R rats (ELISA). The note with it: i.p. 1 h before ischemia, dose equivalent to 30 mg NAC, mean ± S.E.M, n=6. The class given is in vivo. The procedure:
(§1) This section describes the methods used in the investigation of the antiapoptotic effect of the novel compounds 6a–g then supported by further histological and molecular docking studies. The antiapoptotic effect of 6a–g was evaluated through evaluation of decreasing tissue damage induced by I/R in the testis of rats in a dose equivalent to 30 mg N-acetylcysteine (NAC) as an antiapoptotic reference. The rats were subdivided into sham, I/R, NAC and treated with tested compounds groups, each group comprises of 6 rats (weighing 140–150 g). The targeted compounds 6a–g were administrated intra-peritoneal (i.p.) an hour before ischemia, which lasted for (0.5 h) then reperfusion (1 h) followed by cutting the organ (Figure 5). Different biomarkers concentrations were measured in serum to detect testis injury due to ischemia/reperfusion (I/R).
(§2) It was reported that excessive apoptosis in the testis could damage the Leydig cells and apparent decline in serum testosterone levels. Furthermore, excessive apoptosis of Leydig cells results in decreased testosterone. The assays of the apoptotic biomarkers (testicular testosterone and TNFα) were done in comparison with the sham and NAC treated group and the results were outlined in Table S4 (Supplementary Materials).
(§3) TNF-α was measured by ELISA kit (Elabscience, Houston, TX, USA). Caspase-3 was measured by ELISA kit Cusabio, Houston, TX, USA (See Supplementary Materials). Testosterone concentration in testicular samples was determined by the ELISA kit (“DRG”, Marburg, Germany) (See Supplementary Materials).

For data set [2], the system named is testis of I/R rats. Put plainly: Testicular MDA in testis of I/R rats. The format is in vivo. The note with it: i.p. 1 h before ischemia, dose equivalent to 30 mg NAC, mean ± S.E.M, n=6. The procedure:
as §1
(§4) During the long testicular torsion, oxidation damage affects the testis by the production of the reactive oxygen species (ROS). Excessive generation of the ROS interacts with lipids, proteins, and nucleic acids, which has an adverse effect on cell function and damage. The testis has high cell metabolism such that excessive ROS production weakens antioxidant capacity. Malondialdehyde (MDA) is the end product of lipid peroxidation and increased MDA level has an adverse effect on sperm fertility. Furthermore, total antioxidant capacity (TAC) is the measure of the number of free radicals scavenged by a test solution, being used to evaluate the antioxidant capacity of biological samples [55]. The data collected in Table S3 (Supplementary Materials) have identified that there was a significant increase in testicular MDA with a significant decrease in testicular TAC in the I/R group as well as compounds 6d and 6f when compared to sham control and NAC groups. These findings indicate that both 6d and 6f are the worst antiapoptotic compounds compound amongst all the synthesized compounds.
TAC was assessed by the colorimetric technique using commercial kits (El-Minia, Egypt) (See Supplementary Materials). Testicular MDA, an index of lipid peroxidation, was determined by using 1,1,3,3-tetramethoxypropane as standard (See Supplementary Materials).

In another data set the test system is caspase-3. Put plainly: Caspase-3 level in serum of testicular I/R rats (ELISA). The note with it: mean ± S.E.M, n=6. The format is in vivo. The procedure: as §1
Caspases can delay apoptosis, implicating a potential role in drug screening efforts. Therefore, we studied the mechanism of the caspase-3 inhibition activity. Caspase-3 was assayed in the serum of rats treated with 6a–g in comparison with sham and the NAC treated group, as shown in Table S5 (Supplementary Materials).
as §3
For orientation: An ELISA detects its analyte on a solid surface through an enzyme-linked reagent.

The test system of data set [3] is testis of I/R rats. Put plainly: Testicular TAC in testis of I/R rats. The format is in vivo. The note with it: i.p. 1 h before ischemia, dose equivalent to 30 mg NAC, mean ± S.E.M, n=6. The procedure:
as §1, §4
TAC was assessed by the colorimetric technique using commercial kits (El-Minia, Egypt) (See Supplementary Materials). Testicular MDA, an index of lipid peroxidation, was determined by using 1,1,3,3-tetramethoxypropane as standard (See Supplementary Materials). […]
1.3.Determination of Total Antioxidant Capacity (Testicular tissue)
Free radicals or reactive oxygen species (ROS) are produced during biochemical redox reactions as part
of normal physiological cell metabolism (protection from infectious organisms) and as a response to
environmental factors such as UV light, cigarette smoke, environmental pollutants, and g-radiation. Once
formed, ROS attack cellular components causing damage to lipids, proteins, and DNA which can initiate
Antioxidants in the sample reduce dark blue-green colored ABTS radical to colorless reduced ABTS
form. The change of absorbance at 660 nm is related with total antioxidant level of the sample. The assay
is calibrated with a stable antioxidant standard solution which is traditionally named as Trolox
Equivalent that is a vitamin E analog.
The determination of the antioxidative capacity is performed by the reaction of antioxidants in the
sample with a defined amount of exogenously provide hydrogen peroxide (H2O2) The antioxidants in the
sample eliminate a certain amount of the provided hydrogen peroxide. The residual H2O2 is determined
(1 picture or pasted object on this page, not shown here)
colorimetrically by an enzymatic reaction which involves the conversion of 3,5,dichloro–2–hydroxy
benzensulphonate to a colored product.
* Dilute R11000 times immediately before use (10 μl R1 + 10 ml d. Water mix Discard after use.
*Working Reagent: mix equal volumes of R2 and R3 immediately before use.
*Dilute sample if necessary
Total Antioxidant concentration […]

Data set [4] relates to testis of I/R rats. Put plainly: Testicular testosterone in testis of I/R rats (ELISA). The class given is in vivo. The conditions noted are these: i.p. 1 h before ischemia, dose equivalent to 30 mg NAC, mean ± S.E.M, n=6. Set-up: unit not given here. The procedure: as §1, §2, §3
1.2.Determination of serum testosterone using ELISA kit
This ELISA kit uses the Competitive-ELISA principle. The micro ELISA plate provided in this kit has been pre-coated with T. During the reaction, T in the sample or standard competes with a fixed amount of T on the solid phase supporter for sites on the Biotinylated Detection Ab specific to T. Excess conjugate and unbound sample or standard are washed from the plate, and Avidin conjugated to Horseradish Peroxidase (HRP) are added to each microplate well and incubated. Then a TMB substrate solution is added to each well. The enzyme-substrate reaction is terminated by the addition of stop solution and the color change is measured spectrophotometrically at a wavelength of 450 nm ± 2 nm. The concentration of T in the samples is then determined by comparing the OD of the samples to the standard […]
Serum: Allow samples to clot for 2 hours at room temperature or overnight at 4℃ before centrifugation for 20 min at 1000×g at 2-8℃. Collect the supernatant to carry out the assay. Blood collection tubes should be disposable and be non-endotoxin. […]
1. Bring all reagents to room temperature (18~25℃) before use. Follow the Microplate reader manual for set-up and preheat it for 15 min before OD measurement.
2. Wash Buffer: Dilute 30 mL of Concentrated Wash Buffer with 720 mL of deionized or distilled water to prepare 750 mL of Wash Buffer. Note: if crystals have formed in the concentrate, warm it in a 40℃ water-bath and mix it gently until the crystals have completely dissolved.
3. Standard working solution: Centrifuge the standard at 10,000×g for 1min. Add 1.0mL of Reference Standard &Sample Diluent, let it stand for 10min and invert it gently several times. After it dissolves fully, mix it thoroughly with a pipette. This reconstitution produces a working solution of 20 ng/mL. Then make serial dilutions as needed. The recommended dilution gradient is as […]
Dilution method: Take 7 EP tubes, add 500uL of Reference Standard & Sample Diluent to each tube. Pipette 500uL of the 20 ng/mL working solution to the first tube and mix up to produce a 10 ng/mL working solution. Pipette 500uL of the solution from the former tube to the latter one according to this step. The illustration below is for reference. Note: the last tube is regarded as a blank. Don’t pipette solution into it from the former tube.

For the compound `O=c1cc(OCc2cn(-c3cc(=O)[nH]c4ccccc34)nn2)c2ccccc2[nH]1` [6a, 4-((1-(2-Oxo-1,2-dihydroquinolin-4-yl)-1H-1,2,3-triazol-4-yl)methoxy)quinolin-2(1H)-one], the melting point (in general, the temperature of the solid-liquid transition) lay in the range of 300 to 302 °C. For the same compound, the TNF-α in the data set on testis of I/R rats [1] turned out to be 106.40 ± 4.44 pg/mL. For the same compound, the “Testicular MDA” value in the data set on testis of I/R rats [2] turned out to be 62.38±4.23 nmol/g tissue. This compound yielded a Caspase-3 level in the data set on caspase-3 of 2.66 ± 0.21 ng/mL. In addition, in the data set with testis of I/R rats [3], the “Testicular TAC” value was 5.48±0.41 mmol/g tissue. Moreover, the Testicular testosterone in the data set on testis of I/R rats [4] is 4.93±0.38.

Turning to `Cc1ccc2[nH]c(=O)cc(-n3cc(COc4cc(=O)[nH]c5ccccc45)nn3)c2c1` [6b, 6-Methyl-4-(4-(((2-oxo-1,2-dihydroquinolin-4-yl)oxy)methyl)-1H-1,2,3-triazol-1-yl)quinolin-2(1H)-one], the melting point is 298 °C. Further, in the data set with testis of I/R rats [1], the TNF-α stood at 107.90 ± 2.96 pg/mL. In addition, the “Testicular MDA” value in the data set with testis of I/R rats [2] came out at 61.84±4.77 nmol/g tissue. Also, the Caspase-3 level with caspase-3 was 2.94 ± 0.28 ng/mL. Also, the “Testicular TAC” value in the data set with testis of I/R rats [3] worked out at 4.62±0.33 mmol/g tissue. In addition, in the data set on testis of I/R rats [4], the Testicular testosterone came out at 5.07±0.45.
